Assay results published in patent US20120046273A1, “COMPOUNDS AND COMPOSITIONS FOR COGNITION-ENHANCEMENT, METHODS OF MAKING, AND METHODS OF TREATING” (MITHRIDION, INC., priority 2009, published 2012).
Values belong to the compound of their own block, whether it stands above or below them.

Columns and labels:
[1] = system: salivary gland inositol phosphate signaling pathway; assay: In vivo tissue inositol phosphate signaling pathway activation, salivary gland; parameters: species or system rat; details: for block of increase in salivary gland inositol phosphate caused by 82: 1 mg/kg of 82; for inhibition of salivary gland inositol phosphate response to MCD-386: 50 mg/kg MCD-386, antagonist 0.3 mg/kg
Protocol: (§1) Experimental compounds or drug substances were administered using standard techniques to Long Evans Hooded rats weighing 225 to 350 grams, and which had been pretreated with a subcutaneous injection of lithium chloride at a suitable dose between 3 and 10 mmoles per kg. At suitable times the animals were briefly anesthetized using 5% isoflurane and euthanized by decapitation. The brains and submaxillary salivary glands were rapidly dissected out, and the hippocampuses were dissected from the brains. The dissected tissues were homogenized in a suitable volume of ice-cold phosphate-buffered saline containing 10 mM lithium chloride, pH7.4, using a tissue homogenizer, and used immediately or frozen in aliquots at −80degC. for future use. The concentration of inositol-1-phosphate was determined in the homogenates using the IPOne TR-FRET assay (CisBio cat no 621PAPEB), following the manufacturer's instruction

[2] = system: hippocampal inositol phosphate signaling pathway; assay: In vivo tissue inositol phosphate signaling pathway activation, hippocampus; parameters: species or system rat; details: 1 mg/kg of 82; antagonist 0.03 mg/kg
Protocol: as §1

anesthetized rats = assay: Salivation on iontophoretic transdermal delivery of agonist and antagonist from one patch; assay type: in vivo, rat; details: patch with 1 mg of 82 plus 0.01mg antagonist
Protocol: Experimental compounds and drug substances were delivered transdermally in rats using iontophoresis as follows. The fur was shaved from the backs of Long Evans Hooded rats weighing 225 to 325 grams, using electric clippers. Experimental compounds and drug substances were formulated at suitable concentrations an aqueous mixture of the following composition:
The polyvinyl alcohol/water was heated to 95 degC. until it became clear, then the other constituents were added and mixed well. The mixture was introduced into suitable molds containing a disc-shaped cavity 2.2 cm diameter and 2.2 mm deep. Molds may be fabricated using two glass sheets separated by a silicone rubber sheet with suitable sized cavities and filling ports cut-outs. The molds were subject to 3 freeze-thaw cycles at −80degC. and 20degC. until a firm cryogel was obtained. The gels were separated from the molds and trimmed into a circular shape. The gel was placed in a silicone rubber casing with one face in contact with a circular silver foil anodic electrode (22 mm dia/250 microns thick), and the assembly was placed on the shaved skin of the rat such that the other face was in contact with the skin on one side of the back of the rat. The rubber casing formed a seal over and around the gel/electrode assembly. […] This was placed on the other side of the shaved back of the rat, the edges of the gel discs being about 20 mm apart at their nearest point. A DC voltage was applied across the two patches from a constant-current DC power supply and the voltage adjusted to obtain the desired current, such that the skin of the animal completed the electrical circuit.
The devices were placed on shaved backs of anesthetized rats and salivation was measured.
The animals were placed slightly head-down on an inclined, heated ramp. Rectal temperature was monitored using a thermocouple and the temperature of the heating pad was adjusted manually to maintain normal body temperature. Saliva was collected from the mouth by absorption onto pre-weighed slips of filter paper. The filter paper was changed periodically and the amount of saliva was measured by weighing the filter paper slips

[3] = biological target: T1, human muscarinic M1 receptors (Homo sapiens, UniProt P11229); assay: Inositol phosphate production in huM1/A9L cells (IPOne TR-FRET); assay type: cell-based; details: for huM1/A9L Smax: percentage of maximal stimulation by carbachol; for huM1/A9L ED50 relative to CCh: potency relative to carbachol
T1 construct: expressed in transfected cells; host or cells: A9L cells (gift from Professor W Messer)
T1 sequence (P11229 1-460): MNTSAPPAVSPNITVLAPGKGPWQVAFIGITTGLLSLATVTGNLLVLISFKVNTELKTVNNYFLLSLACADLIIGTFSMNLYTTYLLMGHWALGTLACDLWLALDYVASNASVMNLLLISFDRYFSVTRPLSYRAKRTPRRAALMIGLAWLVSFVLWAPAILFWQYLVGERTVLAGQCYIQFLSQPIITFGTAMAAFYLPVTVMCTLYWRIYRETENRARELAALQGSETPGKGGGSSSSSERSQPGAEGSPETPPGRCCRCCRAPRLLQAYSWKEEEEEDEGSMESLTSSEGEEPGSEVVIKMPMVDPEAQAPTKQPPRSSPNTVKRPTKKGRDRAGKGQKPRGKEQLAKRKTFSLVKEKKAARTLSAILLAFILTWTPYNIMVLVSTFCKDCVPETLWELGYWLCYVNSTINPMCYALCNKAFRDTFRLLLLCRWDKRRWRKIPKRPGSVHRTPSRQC
Protocol: (§2) Muscarinic M1 and M3 agonist activity was evaluated by measuring the stimulation of inositol phosphate (IP) production in the presence of lithium chloride from A9L cells transfected with expression plasmids containing human muscarinic M1 and M3 receptors, respectively. The cell lines were a gift from Professor W Messer, and the methods were as described in Tejada F R et al. J. Med. Chem. 2006; 49: 7518-31 except that the assay was scaled down to run in 384 well plates, and IP was measured in the cell lysates using the non-isotopic IPOne TR-FRET assay (CIS-BIO, Inc).
(§3) Cells were grown to 90% confluence in 384 well hi-base plates (Greiner Bio-One), compounds were added at suitable concentrations in growth medium containing 10 mM LiCL, buffered with an extra 10 mM HEPES (pH7.4), and incubated for 60 minutes at 37° C. Cells were lysed and assayed for IP following the manufacturer's instructions.
(§4) The value for a full agonist is 100%, while partial agonists give values below 100%.

[4] = system: pooled male human liver microsomes; assay: Metabolism by human liver microsomes; assay type: in vitro ADME; details: for extent of metabolism in human liver microsomes: 6 hours incubation; for rate of metabolism compared with the other enantiomer: human liver microsomes, as also in rat liver microsomes and FMO Supersomes
Protocol: (§5) Compounds were incubated with pooled male human liver microsomes (BD Biosciences, #452172) and an NADP-regenerating system in a phosphate buffer (pH 7.4) for a total of 6 hours. Aliquots were removed every 2 hours, and 1% formic acid was added to halt the reaction. Samples were centrifuged, filtered through 0.2 micron spinfilter and the amount of each compound in the supernatants was quantitated using LC/MS/MS.

[5] = system: pooled male Sprague-Dawley rat liver microsomes; assay: Metabolism by rat liver microsomes; assay type: in vitro ADME; details: 6 hours incubation
Protocol: as §5, with “Sprague-Dawley rat” for “human”, “#452501)” for “#452172)”

[6] = biological target: T2, human muscarinic M3 receptors (Homo sapiens, UniProt P20309); assay: Inositol phosphate production in huM3/A9L cells (IPOne TR-FRET); assay type: cell-based; details: for huM3/A9L Smax: percentage of maximal stimulation by carbachol; for huM3/A9L ED50 relative to CCh: potency relative to carbachol
T2 construct: expressed in transfected cells; host or cells: A9L cells (gift from Professor W Messer)
Protocol: as §2, §3, §4

[7] = system: apomorphine induced climbing; assay: Apomorphine induced climbing model of psychosis; assay type: in vivo, CD-I mice; details: mice, sc
Protocol: As described in Costall et. al. European Journal of Pharmacology 1978, 50, 39. individual CD-I mice, 1-2 months old, were placed in a cylindrical wire mesh cage (13.2 cm high×13.2 cm diameter) constructed of steel wire 1 mm thick spaced at 1.2 cm^2. Cylinders were placed in a standard OptiMICE mouse cage (29×32×9×29 cm wide and 14 cm high) with adequate wood chip bedding provided. Observations of climbing (defined as 3 or more paws off the ground) were carried out every 5 minutes at a duration of 1 minute for 30 minutes. Animals were injected subcutaneously under isoflurane anesthesia with test compounds, reference compounds, which included clozapine, haloperidol, olanzapine and xanomeline, or PBS as a control. This was followed 5 minutes later by 2 mg/kg apomorphine hydrochloride. All drugs were dissolved in PBS or a mixture of (by volume) 96% PBS and 4% hydroxypropyl-beta-cyclodextrin, and dosed at a rate of 5 ml per kilogram of body weight. Following injections, animals were replaced in the mesh cages and observed for climbing (defined as 3 or more paws off the ground) every 5 minutes for a duration of 1 minute for 60 minutes after dosing.

human FMO1 Supersomes = biological target: T3, human FMO1 Supersomes (Homo sapiens, UniProt Q01740); assay: Metabolism by flavin monoxygenase 1 (FMO1) Supersomes; assay type: in vitro ADME
T3 construct: purchased BD Biosciences 456241
T3 sequence (Q01740 1-532): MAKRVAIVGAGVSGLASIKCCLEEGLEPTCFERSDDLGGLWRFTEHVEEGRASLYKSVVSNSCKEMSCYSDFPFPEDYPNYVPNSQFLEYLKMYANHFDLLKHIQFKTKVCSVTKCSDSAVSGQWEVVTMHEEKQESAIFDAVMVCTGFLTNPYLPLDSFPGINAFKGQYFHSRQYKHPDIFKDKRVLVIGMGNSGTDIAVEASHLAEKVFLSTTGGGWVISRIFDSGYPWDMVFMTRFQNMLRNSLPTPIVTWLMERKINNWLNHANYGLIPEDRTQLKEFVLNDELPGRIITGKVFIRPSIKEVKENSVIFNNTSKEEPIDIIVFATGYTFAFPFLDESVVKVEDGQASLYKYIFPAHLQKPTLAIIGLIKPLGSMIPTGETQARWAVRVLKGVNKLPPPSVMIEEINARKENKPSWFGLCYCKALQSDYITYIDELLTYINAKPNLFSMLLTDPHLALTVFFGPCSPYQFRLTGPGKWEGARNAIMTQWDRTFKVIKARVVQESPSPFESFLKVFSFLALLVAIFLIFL
Protocol: […] Aliquots were removed every 10 minutes, and 1% formic acid was added to halt the reaction. Samples were centrifuged, filtered through 0.2 micron spinfilter and the amount of each compound in the supernatants was quantitated using LC/MS/MS.

[8] = antagonist 0.1 mg/kg (oxybutinin or darifenacin)

T2 sequence (P20309 whole entry): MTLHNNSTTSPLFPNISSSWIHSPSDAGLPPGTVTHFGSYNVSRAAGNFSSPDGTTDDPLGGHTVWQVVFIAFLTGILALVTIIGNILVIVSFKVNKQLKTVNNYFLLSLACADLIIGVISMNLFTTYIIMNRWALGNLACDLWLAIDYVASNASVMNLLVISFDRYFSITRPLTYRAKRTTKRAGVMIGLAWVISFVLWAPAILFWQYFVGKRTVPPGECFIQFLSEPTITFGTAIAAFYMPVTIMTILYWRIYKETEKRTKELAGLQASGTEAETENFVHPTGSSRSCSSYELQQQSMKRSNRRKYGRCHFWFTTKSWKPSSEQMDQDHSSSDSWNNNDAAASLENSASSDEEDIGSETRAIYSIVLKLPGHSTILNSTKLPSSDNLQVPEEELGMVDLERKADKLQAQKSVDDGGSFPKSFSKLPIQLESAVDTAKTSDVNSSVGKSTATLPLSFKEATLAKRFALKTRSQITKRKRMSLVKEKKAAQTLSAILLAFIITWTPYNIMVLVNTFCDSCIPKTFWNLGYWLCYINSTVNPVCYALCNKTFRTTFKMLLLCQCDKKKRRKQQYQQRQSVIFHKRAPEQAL

Compound: C[N+]1(C)CCC(OC(=O)C(O)(c2ccccc2)C2CCCC2)C1 (stereo not drawn) [glycopyrrolate]
block of increase in salivary gland inositol phosphate caused by 82 ([1]; antagonist 0.03 mg/kg): can block | inhibition of salivary gland inositol phosphate response to MCD-386 [1]: virtually completed inhibited | block of increase in hippocampal inositol phosphate caused by 82 [2]: without blocking the increase in hippocampal inositol phosphate | reduction of salivation caused by transdermal iontophoretic delivery of 82 (anesthetized rats): greatly reduced

Compound: [2H]C([2H])([2H])c1noc(C2CCCNC2)n1 (stereo not drawn) [Compound 88, 3-D3-Methyl-5-(piperidin-3-yl)-1,2,4-oxadiazole]
huM1/A9L Smax [3]: 116% | huM1/A9L ED50 relative to CCh [3]: + (potency 2-10x CCh) | extent of metabolism in human liver microsomes [4]: metabolized significantly less in human liver microsomes than in rat liver microsomes | extent of metabolism in rat liver microsomes [5]: far more stable than compounds 126 and 127 | huM3/A9L Smax [6]: 60% | huM3/A9L ED50 relative to CCh [6]: +/− (potency 0.5-2x CCh) | activity in the apomorphine induced climbing model [7]: potent and effective | extent of metabolism in FMO Supersomes (human FMO1 Supersomes): less than half metabolized

Compound: CCN(CC)CC#CCOC(=O)C(O)(c1ccccc1)C1CCCCC1 (stereo not drawn) [oxybutinin]
block of increase in salivary gland inositol phosphate caused by 82 [1, 8]: less effective | inhibition of salivary gland inositol phosphate response to MCD-386 [1]: less effective | reduction of salivation caused by transdermal iontophoretic delivery of 82 (anesthetized rats): reduced salivation, but were less effective

Compound: [2H]C([2H])([2H])c1noc(C2CCCNC2)n1 (single isomer, unassigned) [Compound 89, 3-(methyl-d3)-5-(piperidin-3-yl)-1,2,4-oxadiazole]
huM1/A9L Smax [3]: 90% | huM1/A9L ED50 relative to CCh [3]: + (potency 2-10x CCh) | extent of metabolism in human liver microsomes [4]: metabolized significantly less in human liver microsomes than in rat liver microsomes | rate of metabolism compared with the other enantiomer [4]: metabolized faster than the enantiomers | extent of metabolism in rat liver microsomes [5]: far more stable than compounds 126 and 127 | huM3/A9L Smax [6]: 86% | huM3/A9L ED50 relative to CCh [6]: +/− (potency 0.5-2x CCh) | activity in the apomorphine induced climbing model [7]: potent and effective

PAMPA (? × 106) (PAMPA test): 16.3 ? × 106 | rate of crossing the lipid layer in the PAMPA test (PAMPA test): highest rate of penetration | huM1/A9L ED50 relative to CCh [3]: − (potency <0.5-0.1x CCh) | huM3/A9L ED50 relative to CCh [6]: −− (potency <0.1x CCh)
Compound: Cc1noc(C2(F)CCCNC2)n1 (stereo not drawn) [Compound 118, 5-(3-fluoropiperidin-3-yl)-3-methyl-1,2,4-oxadiazole]

Compound: NC(=O)C(c1ccccc1)(c1ccccc1)[C@@H]1CCN(CCc2ccc3c(c2)CCO3)C1 [darifenacin]
block of increase in salivary gland inositol phosphate caused by 82 [1, 8]: less effective | inhibition of salivary gland inositol phosphate response to MCD-386 [1]: less effective | reduction of salivation caused by transdermal iontophoretic delivery of 82 (anesthetized rats): reduced salivation, but were less effective

Compound: CC(C)[N+](C)(CCOC(=O)C1c2ccccc2Oc2ccccc21)C(C)C [propantheline]
block of increase in salivary gland inositol phosphate caused by 82 ([1]; antagonist 0.03 mg/kg): can block | inhibition of salivary gland inositol phosphate response to MCD-386 [1]: virtually completed inhibited | block of increase in hippocampal inositol phosphate caused by 82 [2]: without blocking the increase in hippocampal inositol phosphate | reduction of salivation caused by transdermal iontophoretic delivery of 82 (anesthetized rats): greatly reduced

Compound: Cc1noc(C2CCCNC2)n1 (single isomer, unassigned) [Compound 83, 3-methyl-5-(piperidin-3-yl)-1,2,4-oxadiazole]
huM1/A9L Smax [3]: 147% | huM1/A9L ED50 relative to CCh [3]: +/− (potency 0.5-2x CCh) | extent of metabolism in human liver microsomes [4]: metabolized significantly less in human liver microsomes than in rat liver microsomes | rate of metabolism compared with the other enantiomer [4]: metabolized faster than the enantiomers | extent of metabolism in rat liver microsomes [5]: far more stable than compounds 126 and 127 | huM3/A9L Smax [6]: 47% | huM3/A9L ED50 relative to CCh [6]: − (potency <0.5-0.1x CCh) | activity in the apomorphine induced climbing model [7]: potent and effective
